In US20100055169A1, “CATIONIC LIPIDS AND USES THEREOF” (ABBOTT LABORATORIES, priority 2008, published 2010):

Key:
[1] = RiboGreen assay of siRNA encapsulation efficiency, in vitro formulations of Lipid-Based Particles; type: physicochemical; conditions: lipid:siRNA 25:1
Description: The mixing solution of cationic lipids, cholesterol, non-cationic lipids and PEG-lipids was prepared in ethanol (total concentration at 10 mg/mL). siSTABLE (purchased from ThermoFisher) (sense-5′ GGGGAAAGCUGGCAAGAUUUU-3′SEQ ID NO. 1, antisense-5′-AAUCUUGCCAGCUUUCCCCUU-3′ SEQ ID NO: 2) % stock solution was prepared in 10 mg/mL of solution by dissolving 10 mg siRNA in 1 mL of RNAse-free UltraPure Water. The calculated amount of siRNA solution was added to 1 mL of citrate buffer (pH 4.0, 20 mM), to provide an siRNA concentration of 0.2 mg/mL, and warmed to 60 C. The calculated amount of lipid solution was warmed to 60 C, transferred to a 0.5 mL syringe with 28½ gauge needle, and injected into the citrate buffer with stirring at 60 C. After 3 minutes, 3 mL of PBS solution at room temperature (pH 7.4) was added into the lipid mixture with stirring. The Lipid-Based Particle solution was cooled to room temperature.
(§1) The siRNA concentrations were measured using Quanti-iT RiboGreen RNA reagent (Molecular Probes, (R11490)). Vesicle sizes were characterized by dynamic light scattering with a DynaPro™ Plate Reader (Wyatt Technology) in 96-well half-area UV plate (Coring) after diluting the formulation sample (20 μL) in phosphate buffered saline (80 μL) at a pH of about 7-8. A 1% agarose gel-based assay was used for analyzing nuclease degradation and protection. Encapsulation efficiency (EE) was calculated using data obtained from a RiboGreen assay.
(§2) RNA concentration and encapsulation efficiency were determined using a Quant-iT® Ribogreen RNA reagent and kit available from Invitrogen. The siRNA was released from the Lipid-Based Particle using one of the following reagents: ethanol, Triton X-100, or phenol/chloroform. The siRNA concentration is quantified using fluorescent reading at 480 nm/520 nm.

[2] = Particle sizing by dynamic light scattering (DynaPro plate reader), in vitro formulations; type: physicochemical; conditions: lipid:siRNA 25:1
Description: as §1
Particle sizes and size distributions (PDI) were characterized by using dynamic light scattering (DLS). A DLS plate reader (Dynapro™, Wyatt Technology) was used for the DLS measurement. This DLS plate reader uses an 830 nm laser and the scattering angle is 158°. It also can control temperature from 4° C. to 70° C. A 96-well format was employed for the samples.
Samples for DLS analysis were prepared by mixing 20 μL of each sample stock solution with 80 μL PBS directly in the 96-well plate (#3697, Corning). Sample mixing was accomplished using a microplate shaker (Orbis, Mikura Ltd.). Plates were read at 20° C. with an acquisition time of 50 seconds for each sample, and data was analyzed with Wyatt Technology's Dynamics V6 software. To rule out potential multiple scattering artifacts, a second plate at 4-fold reduced sample concentrations was independently prepared by mixing 5 μL stock solutions with 95 μL PBS. Under our experimental conditions the results at the two concentrations were very similar, and the final reported result for each sample represents the average of values obtained from the two plates.

[3] = RiboGreen assay of siRNA encapsulation efficiency, in vivo formulations of Lipid-Based Particles; type: physicochemical; conditions: lipid:siRNA 25:1
Description: as §2
The lipid solution was prepared (10 mg/ml) by dissolving the lipid in 200 proof ethanol. The lipid mixture solution is prepared according to the above composition in Table 5.
An siRNA (TetR_ODC—12, G.G.G.G.A.A.A.G.C.U.G.G.C.A.A.G.A.U.U.U.U SEQ ID NO: 1) (ThermoFisher) solution is prepared in a concentration of 10 mg/ml by dissolving 10 mg siRNA in 1 ml of DNAse/RNAse-free distilled water.
(§3) A round bottom flask was submerged into a 65° C. water bath. Citrate buffer (37.5 ml) of pH 4.0 was pipetted into the flask. The solution was stirred by a magnetic stirring bar at a speed of 900 rpm. Both the pH 4.0 citrate buffer and the lipid solution were pre-warmed in the 65° C. water bath for about 3 minutes. A siRNA solution (0.5 ml) was pipetted into the pH 4.0 citrate buffer. The 12.5 ml lipid mixture solution was injected through a 27 gauge needle into the citrate buffer in about 30 seconds. The needle tip was inserted into the solution during the injection. The resulting solution was stirred for 5 minutes at a speed of 900 rpm. The flask was pulled up from the water bath and a 50 ml pH 7.4 PBS buffer was added into the flask. The final solution was further mixed at a speed of 900 rpm for 5 minutes. For the diafiltration process, a dialysis filter (Millipore, 100K, Cat#PXB100C50) was used to remove ethanol in the above solution. When the volume was reduced to 20 ml during the initial diafiltration, 20 ml of pH 7.4 PBS was added to the sample solution. The diafiltration was continued until the volume was reduced to 20 ml. The diafiltration process was repeated 4 times. The volume of the sample solution was reduced to about 12 ml and pH 7.4 PBS was added to make the final volume of 15 ml. The 15 ml solution was filtered sequentially through the 0.45 and 0.22 μm sterile PVDF membrane filters (Millipore) and immediately transferred into a sterile vial.

[4] = Particle sizing assay (Zetasizer Nano ZS), in vivo formulations; type: physicochemical; conditions: lipid:siRNA 25:1
Description: as §3
For measurements of particle sizes and size distributions (PDI), lipid-based particles were prepared as described above. The particle solution (60 μL) was pipetted into a disposable cuvette (UVette, Eppendorf, cat#952010051) and measured in the “General Purpose” mode. Attenuator and position were optimized by the device. Measurements were performed using a Zetasizer Nano ZS (Malvern Instruments) equipped with a 4 mW He—Ne laser at a wavelength of 633 nm at 25° C. Scattered light was detected at a 173° backward scattering angle. The viscosity and refractive index of water at 25° C. was used for data analysis with the Dispersion Technology Software 5.00 (Malvern Instruments).

[5] = test system: β-galactosidase in tumor sections; test: IHC analysis of β-galactosidase staining in intraliver tumors after i.v. dosing of Lipid-Based Particles; type: in vivo, Scid female mice; conditions: intraliver tumor model, Scid mice, tail vein (i.v) injection
Description: The animal studies were carried out in accordance with internal Institutional Animal Care and Use Committee (IACUC) guidelines at Abbott Laboratories. Scid female mice at 6 to 8 weeks of age were obtained from Charles River Laboratory and used for […] tumor models. Mouse livers were exposed by vertical incision on mouse abdomens and the tumor cells were directly injected into the livers. The incision was closed by suture and wound clips. All cell lines used for creating xenograft tumors were subjected to the IMPACT profile I test (18 agents) at the University of Missouri Research Animal Diagnostic and Investigative Laboratory, and all cell lines were found negative for the 18 infectious agents tested. Tumor cells were suspended in a 1:1 mixture of S-MEM (Invitrogen, Carlsbad, Calif.) and matrigel (BD Bioscience, San Jose, Calif.) and inoculated at 1×10E6 cells per animal. Treatments were started 3 4 weeks after tumor inoculation. Formulated or unformulated siRNAs were administrated via tail vein (i.v) injection. IHC was carried out as previously described [Li, L., et al., Evaluating hypoxia-inducible factor-1alpha as a cancer therapeutic target via inducible RNA interference in vivo. Cancer Res, 2005. 65(16): p. 7249-58]. Briefly, tumors were excised, cut into pieces of less than 3 mm in thickness and immediately fixed in buffered formalin solution with neutral pH (Sigma, St. Louis, Mo.). The formalin-fixed and paraffin-embedded tumor sections were then used for staining. The mouse anti-β-galactosidase mAb (Promega, Madison, Wis.) was used to detect β-galactosidase in tumor sections. […] IHC images were acquired using the Nikon TE2000 inverted microscope. The β-galactosidase staining was evaluated by 2 people independently based on the scoring system listed below. The average of the score was calculated for each tumor.

[6] = in vitro formulation b: Cationic lipid/PEG-cholesterol/DSPC/Chol 45/10/15/30 wt %
[7] = in vivo formulation A: Cationic lipid/Example 73/DSPC/Chol 45/10/15/30 wt %
[8] = in vivo formulation I: Cationic lipid/PEG-DPPE/DSPC/Chol 45/10/15/30 wt %
[9] = in vivo formulation J: Cationic lipid/PEG-DSPE/DSPC/Chol 45/10/15/30 wt %
[10] = in vivo formulation L: Cationic lipid/PEG-DPG/DSPC/Chol 45/10/15/30 wt %
[11] = in vivo formulation C: Cationic lipid/Pal-PEG-Cera/DSPC/Chol 45/10/15/30 wt %
[12] = in vitro formulation a: Cationic lipid/Example 73/DSPC/Chol 45/10/15/30 wt %

Row | Structure (SMILES) | % Encapsulation Efficiency [1, 6] | Size [2, 6] | % Encapsulation Efficiency [3, 7] | Size [4, 7] | Size distribution (PDI) [4, 7] | also measured
1 | CCCCC/C=C\C/C=C\CCCCCCCCOCC(CCN(C)CCOC)OCCCCCCCC/C=C\C/C=C\CCCCC (stereo not drawn) [Example 7, N-(2-methoxyethyl)-N-methyl-3,4-bis[(9Z,12Z)-octadeca-9,12-dienyloxy]butan-1-amine] | 96.9% | 123.2 nm | 74% | 140 nm | (0.15) | 
2 | CCCCC/C=C\C/C=C\CCCCCCCCOCC(CCN1CCCCC1)OCCCCCCCC/C=C\C/C=C\CCCCC (stereo not drawn) [Example 1, 1-{3,4-bis[(9Z,12Z)-octadeca-9,12-dienyloxy]butyl}piperidine] |  | 96.3 nm | 74% | 108 nm | (0.18) | 
3 | CCCCC/C=C\C/C=C\CCCCCCCCOCC(CCN(CC)CC)OCCCCCCCC/C=C\C/C=C\CCCCC (stereo not drawn) [Example 3, N,N-diethyl-3,4-bis[(9Z,12Z)-octadeca-9,12-dienyloxy]butan-1-amine] | 96.9% | 113.4 nm |  | 116 nm | (0.12) | % Encapsulation Efficiency [1, 12]: 97.2%; Size [2, 12]: 192 nm
4 | C[C@H]1c2cccc(O)c2C(=O)C2=C(O)[C@]3(O)C(=O)C(C(N)=O)=C(O)[C@@H](N(C)C)[C@@H]3[C@@H](O)[C@@H]21 [Doxycycline] |  |  |  |  |  | In vivo response: β-galactosidase IHC staining score ([5]; column 1): +++ (there was 80% of the section with strong straining); In vivo response: β-galactosidase IHC staining score ([5]; column 2): +++ (there was 80% of the section with strong straining); In vivo response: β-galactosidase IHC staining score ([5]; column 3): +++ (there was 80% of the section with strong straining); In vivo response: β-galactosidase IHC staining score ([5]; column 4): +++ (there was 80% of the section with strong straining); In vivo response: β-galactosidase IHC staining score ([5]; column 5): +++ (there was 80% of the section with strong straining); In vivo response: β-galactosidase IHC staining score ([5]; column 6): +++ (there was 80% of the section with strong straining)

More lines, main results first:

Row | % Encapsulation Efficiency [1, 6] | Size [2, 6] | % Encapsulation Efficiency [3, 7] | Size [4, 7] | Size distribution (PDI) [4, 7] | Structure (SMILES) | also measured
5 | 88.3% | 105.8 nm | 87.5% | 160 nm | (0.19) | CCCCC/C=C\C/C=C\CCCCCCCCOCC(CCN(C)CCN(C)C)OCCCCCCCC/C=C\C/C=C\CCCCC (stereo not drawn) [Example 9, N-{3,4-bis[(9Z,12Z)-octadeca-9,12-dienyloxy]butyl}-N,N′,N′-trimethylethane-1,2-diamine] | % Encapsulation Efficiency [3, 8]: 98%; % Encapsulation Efficiency [3, 9]: 98%; % Encapsulation Efficiency [3, 10]: 98%; Size [4, 8]: 93.4 nm; Size distribution (PDI) [4, 8]: (0.069); Size [4, 9]: 98.1 nm; Size distribution (PDI) [4, 9]: (0.078); Size [4, 10]: 98.7 nm; Size distribution (PDI) [4, 10]: (0.056)
6 | 86.2% | 114.4 nm |  | 149 nm | (0.21) | CCCCC/C=C\C/C=C\CCCCCCCCOCC(CCN1CCC(N(C)C)C1)OCCCCCCCC/C=C\C/C=C\CCCCC (stereo not drawn) [Example 17, 1-{3,4-bis[(9Z,12Z)-octadeca-9,12-dienyloxy]butyl}-N,N-dimethylpyrrolidin-3-amine] | % Encapsulation Efficiency [3, 11]: 97%; Size [4, 11]: 101 nm; Size distribution (PDI) [4, 11]: (0.154)
